The record followed here is ChEMBL document CHEMBL2384963, “Diterpenoids from the twigs and leaves of Fokienia hodginsii” (J Nat Prod, 2013).

pIC50: −log10 of the molar value. Bounds are passed on as bounds.

The test system of one assay is SW480. Kind of assay: Cytotoxicity against human SW480 cells after 48 hrs by MTT assay. As to conditions: SW480, 48 h. The format is functional, cell-based. A general note: Tetrazolium assays rely on reduction of a dye to a coloured formazan, in cell work by metabolically active cells.
The pIC50 is −log10 of the IC50, conventionally taken in molar units. Low values mean a high IC50, high ones a low IC50. Turning to `C=CC(=C)CC[C@@H]1[C@@]2(C)CCC[C@](C)(COC(=O)/C=C/c3ccc(O)cc3)[C@@H]2CC[C@@]1(C)O`, the pIC50 was 4.71.
Compound `C=C1CC[C@@H]2[C@](C)(CCC[C@@]2(C)C(=O)O)[C@H]1CC/C(C)=C/COC(C)=O` showed a pIC50 below 4.40.
On the same count and under the same terms, the result for `C=C[C@@](C)(O)CC[C@H]1C(=C)CC[C@@H]2[C@]1(C)CCC[C@]2(C)C(=O)O` reads below 4.40; that for `C=CC(=C)CC[C@@H]1[C@@]2(C)CCC[C@](C)(COC(=O)/C=C/c3ccc(O)c(OC)c3)[C@@H]2CC[C@@]1(C)O`, 4.77.
As to `C=CC(=C)CC[C@@H]1[C@@]2(C)CCC[C@](C)(COC(=O)/C=C\c3ccc(O)cc3)[C@@H]2CC[C@@]1(C)O`, the pIC50 was 4.87.
Same read-out and setting: then `CC(C)c1cc2c(cc1O)[C@@]1(CO)CCCC(C)(C)[C@H]1CC2`, with 4.82; and `C=C[C@]1(C)C=C2CC[C@H]3[C@](C)(CO)CCC[C@]3(C)[C@H]2[C@H](O)C1`, with below 4.40.
With `C=C[C@]1(C)C=C2CC[C@H]3[C@](C)(COC(C)=O)CCC[C@]3(C)[C@H]2[C@H](O)C1`, the pIC50 is below 4.40.
In turn, `C=C[C@]1(C)C=C2CC[C@H]3C(C)(C)[C@@H](O)CC[C@]3(C)[C@H]2[C@H](O)C1` gave a pIC50 below 4.40.
The same measure, in the same setting: the result for `C=C[C@]1(C)C=C2CC[C@H]3C(C)(C)[C@@H](O)CC[C@]3(C)[C@H]2[C@H](OC(C)=O)C1` reads below 4.40.
Consider `C=C[C@@]1(C)C=C[C@H]2C(=C1)[C@H](O)C[C@H]1[C@](C)(CO)CCC[C@]21C`, for which the pIC50 is below 4.40.
For the compound `C=CC(=C)[C@H](O)C[C@H]1C(=C)CC[C@@H]2[C@]1(C)CCC[C@]2(C)C(=O)O`, the pIC50 is below 4.40.
`C=C[C@@]1(C)O[C@H]1C[C@H]1C(=C)CC[C@@H]2[C@]1(C)CCC[C@]2(C)C(=O)O` showed a pIC50 below 4.40.
For `C=C[C@]1(C)O[C@H]1C[C@H]1C(=C)CC[C@@H]2[C@]1(C)CCC[C@]2(C)C(=O)O`, the pIC50 is below 4.40.

The next assay concerns SMMC-7721. As to the kind of experiment: Cytotoxicity against human SMMC7721 cells after 48 hrs by MTT assay. As to conditions: SMMC-7721, 48 h. It is filed as functional, cell-based.
In turn, `C=CC(=C)CC[C@@H]1[C@@]2(C)CCC[C@](C)(COC(=O)/C=C/c3ccc(O)cc3)[C@@H]2CC[C@@]1(C)O` showed a pIC50 of 4.81.
In the case of `C=C1CC[C@@H]2[C@](C)(CCC[C@@]2(C)C(=O)O)[C@H]1CC/C(C)=C/COC(C)=O`, the pIC50 is below 4.40.
`C=C[C@@](C)(O)CC[C@H]1C(=C)CC[C@@H]2[C@]1(C)CCC[C@]2(C)C(=O)O`: the pIC50 is below 4.40.
`C=CC(=C)CC[C@@H]1[C@@]2(C)CCC[C@](C)(COC(=O)/C=C/c3ccc(O)c(OC)c3)[C@@H]2CC[C@@]1(C)O`: the pIC50 was 4.85.
`C=CC(=C)CC[C@@H]1[C@@]2(C)CCC[C@](C)(COC(=O)/C=C\c3ccc(O)cc3)[C@@H]2CC[C@@]1(C)O` gave a pIC50 of 4.79.
For `CC(C)c1cc2c(cc1O)[C@@]1(CO)CCCC(C)(C)[C@H]1CC2`, the pIC50 is 4.82.
`C=C[C@]1(C)C=C2CC[C@H]3[C@](C)(CO)CCC[C@]3(C)[C@H]2[C@H](O)C1` gave a pIC50 below 4.40.
`C=C[C@]1(C)C=C2CC[C@H]3[C@](C)(COC(C)=O)CCC[C@]3(C)[C@H]2[C@H](O)C1`: the pIC50 was below 4.40.
On the same count and under the same terms, the result for `C=C[C@]1(C)C=C2CC[C@H]3C(C)(C)[C@@H](O)CC[C@]3(C)[C@H]2[C@H](O)C1` reads below 4.40; that for `C=C[C@]1(C)C=C2CC[C@H]3C(C)(C)[C@@H](O)CC[C@]3(C)[C@H]2[C@H](OC(C)=O)C1`, below 4.40; that for `C=C[C@@]1(C)C=C[C@H]2C(=C1)[C@H](O)C[C@H]1[C@](C)(CO)CCC[C@]21C`, below 4.40.
In turn, `C=CC(=C)[C@H](O)C[C@H]1C(=C)CC[C@@H]2[C@]1(C)CCC[C@]2(C)C(=O)O` had a pIC50 below 4.40.
On the same count and under the same terms, then `C=C[C@@]1(C)O[C@H]1C[C@H]1C(=C)CC[C@@H]2[C@]1(C)CCC[C@]2(C)C(=O)O`, with below 4.40; and `C=C[C@]1(C)O[C@H]1C[C@H]1C(=C)CC[C@@H]2[C@]1(C)CCC[C@]2(C)C(=O)O`, with below 4.40.

The next assay deals with MCF7. Kind of assay: Cytotoxicity against human MCF7 cells after 48 hrs by MTT assay. The format is functional, cell-based. As to conditions: MCF7, 48 h.
Regarding `C=CC(=C)CC[C@@H]1[C@@]2(C)CCC[C@](C)(COC(=O)/C=C/c3ccc(O)cc3)[C@@H]2CC[C@@]1(C)O`, the pIC50 is 4.78.
`C=C1CC[C@@H]2[C@](C)(CCC[C@@]2(C)C(=O)O)[C@H]1CC/C(C)=C/COC(C)=O` showed a pIC50 below 4.40.
With `C=C[C@@](C)(O)CC[C@H]1C(=C)CC[C@@H]2[C@]1(C)CCC[C@]2(C)C(=O)O`, the pIC50 is below 4.40.
For `C=CC(=C)CC[C@@H]1[C@@]2(C)CCC[C@](C)(COC(=O)/C=C/c3ccc(O)c(OC)c3)[C@@H]2CC[C@@]1(C)O`, the pIC50 was 4.87.
Consider `C=CC(=C)CC[C@@H]1[C@@]2(C)CCC[C@](C)(COC(=O)/C=C\c3ccc(O)cc3)[C@@H]2CC[C@@]1(C)O`, for which the pIC50 is 4.82.
`CC(C)c1cc2c(cc1O)[C@@]1(CO)CCCC(C)(C)[C@H]1CC2` had a pIC50 of 4.82.
`C=C[C@]1(C)C=C2CC[C@H]3[C@](C)(CO)CCC[C@]3(C)[C@H]2[C@H](O)C1` showed a pIC50 below 4.40.
Compound `C=C[C@]1(C)C=C2CC[C@H]3[C@](C)(COC(C)=O)CCC[C@]3(C)[C@H]2[C@H](O)C1` gave a pIC50 below 4.40.
The compound `C=C[C@]1(C)C=C2CC[C@H]3C(C)(C)[C@@H](O)CC[C@]3(C)[C@H]2[C@H](O)C1` showed a pIC50 below 4.40.
The compound `C=C[C@]1(C)C=C2CC[C@H]3C(C)(C)[C@@H](O)CC[C@]3(C)[C@H]2[C@H](OC(C)=O)C1` had a negative-log IC50 (pIC50) below 4.40.
Take `C=C[C@@]1(C)C=C[C@H]2C(=C1)[C@H](O)C[C@H]1[C@](C)(CO)CCC[C@]21C`: the pIC50 was below 4.40.
Same read-out and setting: the result for `C=CC(=C)[C@H](O)C[C@H]1C(=C)CC[C@@H]2[C@]1(C)CCC[C@]2(C)C(=O)O` reads below 4.40; that for `C=C[C@@]1(C)O[C@H]1C[C@H]1C(=C)CC[C@@H]2[C@]1(C)CCC[C@]2(C)C(=O)O`, below 4.40; that for `C=C[C@]1(C)O[C@H]1C[C@H]1C(=C)CC[C@@H]2[C@]1(C)CCC[C@]2(C)C(=O)O`, below 4.40.

Another assay relates to HL-60. As to the kind of experiment: Cytotoxicity against human HL60 cells after 48 hrs by MTT assay. It is filed as functional, cell-based. As to conditions: HL-60, 48 h.
In turn, `C=CC(=C)CC[C@@H]1[C@@]2(C)CCC[C@](C)(COC(=O)/C=C/c3ccc(O)cc3)[C@@H]2CC[C@@]1(C)O` gave a pIC50 of 4.93.
On the same count and under the same terms, then `C=C1CC[C@@H]2[C@](C)(CCC[C@@]2(C)C(=O)O)[C@H]1CC/C(C)=C/COC(C)=O`, with below 4.40.
Compound `C=C[C@@](C)(O)CC[C@H]1C(=C)CC[C@@H]2[C@]1(C)CCC[C@]2(C)C(=O)O` had a pIC50 below 4.40.
`C=CC(=C)CC[C@@H]1[C@@]2(C)CCC[C@](C)(COC(=O)/C=C/c3ccc(O)c(OC)c3)[C@@H]2CC[C@@]1(C)O` gave a pIC50 of 4.85.
The same measure, in the same setting: the result for `C=CC(=C)CC[C@@H]1[C@@]2(C)CCC[C@](C)(COC(=O)/C=C\c3ccc(O)cc3)[C@@H]2CC[C@@]1(C)O` reads 4.85; that for `CC(C)c1cc2c(cc1O)[C@@]1(CO)CCCC(C)(C)[C@H]1CC2`, 4.81.
`C=C[C@]1(C)C=C2CC[C@H]3[C@](C)(CO)CCC[C@]3(C)[C@H]2[C@H](O)C1` gave a pIC50 below 4.40.
For the compound `C=C[C@]1(C)C=C2CC[C@H]3[C@](C)(COC(C)=O)CCC[C@]3(C)[C@H]2[C@H](O)C1`, the pIC50 is below 4.40.
On the same count and under the same terms, the result for `C=C[C@]1(C)C=C2CC[C@H]3C(C)(C)[C@@H](O)CC[C@]3(C)[C@H]2[C@H](O)C1` reads below 4.40.
In turn, `C=C[C@]1(C)C=C2CC[C@H]3C(C)(C)[C@@H](O)CC[C@]3(C)[C@H]2[C@H](OC(C)=O)C1` gave a pIC50 below 4.40.
The same measure, in the same setting: then `C=C[C@@]1(C)C=C[C@H]2C(=C1)[C@H](O)C[C@H]1[C@](C)(CO)CCC[C@]21C`, with below 4.40; and `C=CC(=C)[C@H](O)C[C@H]1C(=C)CC[C@@H]2[C@]1(C)CCC[C@]2(C)C(=O)O`, with below 4.40; and `C=C[C@@]1(C)O[C@H]1C[C@H]1C(=C)CC[C@@H]2[C@]1(C)CCC[C@]2(C)C(=O)O`, with below 4.40.
The compound `C=C[C@]1(C)O[C@H]1C[C@H]1C(=C)CC[C@@H]2[C@]1(C)CCC[C@]2(C)C(=O)O` gave a pIC50 below 4.40.

The test system of the next assay is A549. As to the kind of experiment: Cytotoxicity against human A549 cells after 48 hrs by MTT assay. It is filed as functional, cell-based. As to conditions: A549, 48 h.
The compound `C=CC(=C)CC[C@@H]1[C@@]2(C)CCC[C@](C)(COC(=O)/C=C/c3ccc(O)cc3)[C@@H]2CC[C@@]1(C)O` gave a pIC50 of 4.69.
Still for that read-out and setting: the result for `C=C1CC[C@@H]2[C@](C)(CCC[C@@]2(C)C(=O)O)[C@H]1CC/C(C)=C/COC(C)=O` reads below 4.40; that for `C=C[C@@](C)(O)CC[C@H]1C(=C)CC[C@@H]2[C@]1(C)CCC[C@]2(C)C(=O)O`, below 4.40; that for `C=CC(=C)CC[C@@H]1[C@@]2(C)CCC[C@](C)(COC(=O)/C=C/c3ccc(O)c(OC)c3)[C@@H]2CC[C@@]1(C)O`, 4.78.
Consider `C=CC(=C)CC[C@@H]1[C@@]2(C)CCC[C@](C)(COC(=O)/C=C\c3ccc(O)cc3)[C@@H]2CC[C@@]1(C)O`, for which the pIC50 is 4.77.
Consider `CC(C)c1cc2c(cc1O)[C@@]1(CO)CCCC(C)(C)[C@H]1CC2`, for which the pIC50 is 4.68. The pIC50 values of the last two compounds are within 0.2 log units of each other.
In turn, `C=C[C@]1(C)C=C2CC[C@H]3[C@](C)(CO)CCC[C@]3(C)[C@H]2[C@H](O)C1` gave a pIC50 below 4.40.
Same read-out and setting: then `C=C[C@]1(C)C=C2CC[C@H]3[C@](C)(COC(C)=O)CCC[C@]3(C)[C@H]2[C@H](O)C1`, with below 4.40; and `C=C[C@]1(C)C=C2CC[C@H]3C(C)(C)[C@@H](O)CC[C@]3(C)[C@H]2[C@H](O)C1`, with below 4.40; and `C=C[C@]1(C)C=C2CC[C@H]3C(C)(C)[C@@H](O)CC[C@]3(C)[C@H]2[C@H](OC(C)=O)C1`, with below 4.40.
Compound `C=C[C@@]1(C)C=C[C@H]2C(=C1)[C@H](O)C[C@H]1[C@](C)(CO)CCC[C@]21C` showed a pIC50 below 4.40.
With `C=CC(=C)[C@H](O)C[C@H]1C(=C)CC[C@@H]2[C@]1(C)CCC[C@]2(C)C(=O)O`, the pIC50 was below 4.40.
In the case of `C=C[C@@]1(C)O[C@H]1C[C@H]1C(=C)CC[C@@H]2[C@]1(C)CCC[C@]2(C)C(=O)O`, the pIC50 is below 4.40.
The same measure, in the same setting: the result for `C=C[C@]1(C)O[C@H]1C[C@H]1C(=C)CC[C@@H]2[C@]1(C)CCC[C@]2(C)C(=O)O` reads below 4.40.
